According to paper PMC11784183, “Identification of an antibiotic from an HTS targeting EF-Tu:tRNA interaction: a prospective topical treatment for MRSA skin infections” (Applied and Environmental Microbiology, 2024):

System: S. aureus USA300 subcutaneous infection
Assay: Mouse skin infection model, topical ointment
Type: in vivo, mice
Settings: topical ointment daily

SMILES: C/C(=C\C(=O)OCCCCCCCCC(=O)O)C[C@@H]1OC[C@H](C[C@@H]2O[C@H]2[C@@H](C)[C@H](C)O)[C@@H](O)[C@H]1O [mupirocin, reference compound]
- dermonecrosis as a result of S. aureus infection (area over time) (5 days, vs untreated control (ointment without drug)): not having a significant effect on dermonecrosis
- bacterial burden in punch biopsies (day 5, vs untreated control): significantly reduced the bacterial burden
